“Also recorded” adds a separate entry of the source.
Key:
Assay type in all cases: cell-based, human
[1] = tested on: AMPA and NMDA glutamatergic receptors; experiment: Glutamate puff evoked postsynaptic currents in hiN cells; conditions: glutamate 1 mM puff, NBQX 20 μM and APV 50 μM applied together
[2] = tested on: glutamatergic receptor; experiment: Spontaneous postsynaptic currents of hiN cells in murine glial coculture; conditions: hiN cells held at −70 mV, murine glial monolayer coculture; NBQX/APV bath application
[3] = tested on: hiN cells integrated into host brain; experiment: Voltage-clamp recording of transplanted hiN cells in acutely prepared mouse brain slices; conditions: for spontaneous excitatory postsynaptic currents (sEPSCs) under glutamatergic block: NBQX 20 μM and APV 50 μM
[4] = tested on: γ-secretase; experiment: Aβ ELISA of media from hiN cultures treated with γ-secretase inhibitor; conditions: DAPT 10 μM; hiN cell cultures
Method: APP ELISA was performed using a human APP ELISA kit (Invitrogen, Camarillo, Calif.), according to the manufacturer's instruction. Absorbance was read on a VersaMax ELISA Microplate Reader (Molecular Devices, Inc. Sunnyvale, Calif.) at 450 nm. The amount of APP was normalized to the total cell protein (determined with the DC Protein Assay Reagent kit; Bio-Rad, Hercules, Calif.). sAPPIβ and Aβ ELISA were performed on supernatant media from hiN cell cultures at 21 days after viral transduction. […] was performed using BetaMarkTM sAPP Beta ELISA kit (Covance, Princeton, N.J.), according to the manufacturer's instruction. The chemiluminescence was read on a microplate luminometer ([…] Plus, TECAN, Männedorf Switzerland). Aβ quantification was performed by ELISA as described previously (Cirrito et al., 2003). Media was conditioned for 48 hr prior to harvesting. Samples were analyzed for Aβ40 or Aβ42 using specific sandwich ELISAs. Briefly, Aβ40, and Aβ42 were captured using monoclonal antibodies targeted against amino acids 35-40 (HJ2.0), or 33-42 (HJ7.4) of Aβ, respectively. The antibodies HJ2.0, HJ5.1 and HJ7.4 were gifts from David M. Holtzman. […] All assays were developed using Super Slow ELISA TMB (Sigma) and read on a VersaMax ELISA Microplate Reader (Molecular Devices, Inc. Sunnyvale, Calif.) at 650 nm. […]

[5] = tested on: APP-positive puncta in hiN cells; experiment: APP immunostaining of hiN cells, APP-positive puncta area per cell; conditions: DAPT 10 μM, 18 hr
Method: Cells were fixed in 4% paraformaldehyde for 10 min at room temperature, followed by rinsing 3 times with phosphate-buffered saline (PBS). Cells were then permeabilized with 0.1% Triton X-100 in 1×PBS for 10 min at room temperature. After again rinsing 3 times with PBS, cells were incubated with blocking buffer containing 10% goat serum and 10 mg/ml BSA at room temperature for 1 hr. All primary antibodies were diluted in PBS. Cells were incubated with primary antibodies as listed at 4° C. for 12-16 hr, followed by the corresponding secondary antibody solutions in 37° C. for 1 hr. Cells were rinsed with 1×PBS three times followed by mounting of coverslips with anti-fade solution (Invitrogen). […]
Imaging was performed by laser-scanning confocal microscopy with a 63×/1.4 objective (LSM510, Can Zeiss) or by epifluorescence microscope (Olympus 1×71; Japan). hiN cell counts and fluorescence intensities were quantified by taking 10 to 35 images of randomly selected views per well. Subsequently, images were analyzed for cell counts and fluorescent intensity using Image J 1.42q software (National Institute of Health, USA). […]

[6] = tested on: secreted Aβ40 and Aβ42; experiment: Aβ40/Aβ42 sandwich ELISA of hiN cell culture media with ibuprofen treatment; conditions: ibuprofen 250 μM
Method: sAPPβ ELISA was performed using BetaMar sAPP Beta ELISA, according to the manufacturer's instruction. Aβ quantification was performed by ELISAs (Cirrito et al., 2003). Media was conditioned for 48 hr prior to harvesting. Samples were analyzed for Aβ40 or Aβ42 using specific sandwich ELISAs. Briefly, Aβ40, and Aβ42 were captured using monoclonal antibodies targeted against amino acids 35-40 (HJ2.0), or 33-42 (HJ7.4) of Aβ, respectively. The antibodies HJ2.0, HJ5.1 and HJ7.4 were used. For Aβ40 and Aβ42 assays, a biotinylated central domain monoclonal antibody (HJ5.1) followed by streptavidin-poly-HRP-40 was used for detection. Assays were developed using Super Slow ELISA TMB and read on a VersaMax ELISA Microplate Reader. Aβ40, and Aβ42 standard curves were generated using purified peptides. The amount of Aβ was normalized to the cell density per well (relative to UND line as indicated in legend), and was expressed as pg/ml.

[7] = tested on: sodium channel
[8] = tested on: Na+ channel
[9] = tested on: GABA receptors; experiment: GABA puff evoked currents in hiN cells; conditions: GABA 1 mM puff, picrotoxin 50 μM

## N[C@H](CCCP(=O)(O)O)C(=O)O [APV, D(−)-2-amino-5-phosphonovaleric acid]
[1]
  glutamate-mediated postsynaptic currents: could be blocked; also recorded: sensitive
[2]
  spontaneous postsynaptic currents in glial coculture: sensitive; also recorded: abolished
[3]
  spontaneous excitatory postsynaptic currents (sEPSCs) under glutamatergic block: suppressed; also recorded: drastically reduced

## C[C@H](NC(=O)Cc1cc(F)cc(F)c1)C(=O)N[C@H](C(=O)OC(C)(C)C)c1ccccc1 [DAPT]
[4]
  production of Aβ in media: suppressed
[5]
  total APP-positive puncta area per cell, UND hiN cells: partially phenocopied; also recorded: significant increase

## NS(=O)(=O)c1cccc2c1c([N+](=O)[O-])cc1nc(O)c(O)nc12 [NBQX, 2,3-dihydroxy-6-nitro-7 sulphamoyl-benzo[f]quinoxaline-2,3-dione]
[1]
  glutamate-mediated postsynaptic currents: could be blocked; also recorded: sensitive
[2]
  spontaneous postsynaptic currents in glial coculture: sensitive; also recorded: abolished
[3]
  spontaneous excitatory postsynaptic currents (sEPSCs) under glutamatergic block: suppressed; also recorded: drastically reduced

## CC(C)Cc1ccc(C(C)C(=O)O)cc1 (centres unmarked) [ibuprofen]
[6]; FAD (Presenilin mutant) hiN cell cultures
  increased Aβ40 and Aβ42 generation in FAD hiN cell cultures: failed to suppress; also recorded: resistant
[6]; SAD hiN cell cultures
  elevated levels of secreted Aβ40 and Aβ42 in SAD hiN cell cultures: suppressed

## NC1=N[C@H](O)[C@H]2[C@H]3O[C@]4(O)O[C@@H]([C@@H](O)[C@@]2(N1)[C@@H]4O)[C@]3(O)CO [tetrodotoxin]
[7]
  depolarization-induced action potentials: could be inhibited; also recorded: could be blocked
[8]
  fast inward Na+ currents: sensitive

## picrotoxin
[9]
  GABA evoked currents: sensitive
[3]; picrotoxin 50 μM
  frequency and amplitude of spontaneous excitatory postsynaptic currents (sEPSCs): increased in frequency and amplitude
